Tests used:
Assay in all cases: relative viability (nuclei count vs DMSO), 5 days (fraction); higher = more cells survive
[1] = compound: Cn1c(Nc2ccc(C(F)(F)F)cc2)nc2cc(Oc3ccnc(-c4ncc(C(F)(F)F)[nH]4)c3)ccc21 [RAF265] + Cc1cc(Nc2cc(N3CCN(C)CC3)nc(Sc3ccc(NC(=O)C4CC4)cc3)n2)n[nH]1 [Tozasertib] (partner 0.1 µM)
In short: (§1)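 Nuclei were stained with Hoechst during a one-step fixation (final 0.05% Triton X-100, 1% formaldehyde, 1 ug/ml Hoechst) carried out 5 days after dosing, then counted on 4× images. The cells, lung cancer lines in 1536-well plates, had been dosed by pin tool the day after seeding with one drug alone or a fixed anchor-drug dose plus five library-drug doses (not always all listed) in √10 steps. Relative viability is the nuclei count in treated wells divided by that in vehicle wells, and each value is the median of duplicate plates.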

[2] = compound: Cn1c(Nc2ccc(C(F)(F)F)cc2)nc2cc(Oc3ccnc(-c4ncc(C(F)(F)F)[nH]4)c3)ccc21 [RAF265] + Cc1nc(NC(=O)N2CCC[C@H]2C(N)=O)sc1-c1ccnc(C(C)(C)C(F)(F)F)c1 [Alpelisib] (partner 2 µM)
In short: as §1

[3] = compound: C1=CC=C2C(=C1)C=CC(=C2SSC3=C(C=CC4=CC=CC=C43)O)O [IPA-3] + CC1(C)CCC(c2ccc(Cl)cc2)=C(CN2CCN(c3ccc(C(=O)NS(=O)(=O)c4ccc(N[C@H](CCN5CCOCC5)CSc5ccccc5)c(S(=O)(=O)C(F)(F)F)c4)cc3)CC2)C1 [Navitoclax] (partner 0.5 µM)
In short: as §1

[4] = compound: Cn1c(Nc2ccc(C(F)(F)F)cc2)nc2cc(Oc3ccnc(-c4ncc(C(F)(F)F)[nH]4)c3)ccc21 [RAF265] + CC1(C)CCC(c2ccc(Cl)cc2)=C(CN2CCN(c3ccc(C(=O)NS(=O)(=O)c4ccc(N[C@H](CCN5CCOCC5)CSc5ccccc5)c(S(=O)(=O)C(F)(F)F)c4)cc3)CC2)C1 [Navitoclax] (partner 0.5 µM)
In short: as §1

Cell Line | relative viability ([1]; first compound 0.01 µM) | relative viability ([1]; first compound 0.03162 µM) | relative viability ([1]; first compound 0.1 µM) | relative viability ([1]; first compound 0.3162 µM) | relative viability ([1]; first compound 1 µM) | relative viability ([2]; first compound 0.01 µM) | relative viability ([2]; first compound 0.03162 µM) | relative viability ([2]; first compound 0.1 µM) | relative viability ([2]; first compound 0.3162 µM) | relative viability ([2]; first compound 1 µM) | relative viability ([3]; first compound 0.2 µM) | relative viability ([3]; first compound 0.6325 µM) | relative viability ([3]; first compound 2 µM) | relative viability ([3]; first compound 6.325 µM) | relative viability ([3]; first compound 20 µM) | relative viability ([4]; first compound 0.01 µM) | relative viability ([4]; first compound 0.03162 µM) | relative viability ([4]; first compound 0.1 µM) | relative viability ([4]; first compound 0.3162 µM) | relative viability ([4]; first compound 1 µM)
201T | 0.955 | 0.862 | 1.03 | 0.939 | 0.696 | 0.981 | 1.02 | 1.07 | 1.06 | 0.981 | 1.21 | 1.19 | 1.21 | 1.22 | 1.18 | 1.23 | 1.2 | 1.23 | 1.27 | 1.28
A549 |  |  |  |  |  | 0.761 | 0.612 | 0.541 | 0.244 | 0.178 | 1.27 | 1.21 | 1.39 | 1.28 | 1.18 | 1.31 | 1.19 | 1.06 | 0.669 | 0.624
A-427 | 0.218 | 0.213 | 0.205 | 0.109 | 0.089 | 1.17 | 1.01 | 0.976 | 0.723 | 0.402 | 0.996 | 0.857 | 0.98 | 0.856 | 0.99 | 0.929 | 0.678 | 0.96 | 0.579 | 0.272
ABC-1 | 0.17 | 0.202 | 0.178 | 0.158 | 0.24 | 1.13 | 1.01 | 1.01 | 1.05 | 0.619 |  |  |  |  |  |  |  |  |  | 
BEN | 0.441 | 0.575 | 0.468 | 0.554 | 0.407 | 1.08 | 1.05 | 1.2 | 1.1 | 0.814 | 0.0641 | 0.0847 | 0.0621 | 0.0718 | 0.0865 | 0.0592 | 0.0731 | 0.0721 | 0.0801 | 0.0649
CAL-12T | 0.392 | 0.308 | 0.364 | 0.306 | 0.172 | 1.26 | 1.04 | 0.944 | 0.575 | 0.354 | 1.41 | 1.21 | 1.39 | 1.19 | 1.23 | 1.28 | 1.01 | 0.861 | 0.757 | 0.523
Calu-6 |  |  |  |  |  | 0.958 | 0.771 | 0.43 | 0.302 | 0.274 | 0.794 | 0.839 | 0.833 | 0.753 | 0.536 | 0.753 | 0.588 | 0.569 | 0.304 | 0.221
ChaGo-K-1 | 0.215 | 0.246 | 0.217 | 0.243 | 0.235 |  |  |  |  |  | 1.07 | 1 | 0.836 | 1.06 | 1.17 | 1.1 | 1 | 1.03 | 1.04 | 0.823
EBC-1 |  |  |  |  |  | 0.907 | 0.794 | 0.495 | 0.403 | 0.541 | 0.417 | 0.392 | 0.387 | 0.333 | 0.309 | 0.398 | 0.366 | 0.332 | 0.283 | 0.312
IA-LM |  |  |  |  |  | 0.774 |  | 0.587 | 0.752 | 0.44 | 0.793 | 0.683 | 0.765 | 0.601 | 0.392 | 0.73 |  | 0.663 | 0.597 | 0.609
LCLC-103H | 0.472 | 0.48 | 0.42 | 0.424 | 0.227 | 0.862 | 1.02 | 0.854 | 0.745 | 0.461 |  |  |  |  |  |  |  |  |  | 
NCI-H358 | 0.11 | 0.0915 | 0.0883 | 0.0935 | 0.0863 | 0.984 | 0.6 | 0.477 | 0.382 | 0.282 |  |  |  |  |  |  |  |  |  | 
NCI-H522 | 0.57 | 0.602 | 0.546 | 0.553 | 0.521 |  |  |  |  |  |  |  |  |  |  |  |  |  |  | 
NCI-H650 | 0.716 | 0.704 | 0.738 | 0.655 | 0.375 | 1.35 | 1.17 | 1.21 | 0.852 | 0.398 |  |  |  |  |  |  |  |  |  | 
NCI-H661 | 0.374 | 0.35 | 0.314 | 0.351 | 0.35 | 0.865 | 0.586 | 0.563 | 0.47 | 0.241 |  |  |  |  |  |  |  |  |  | 
NCI-H1299 |  |  |  |  |  | 0.981 | 1.06 | 0.966 | 0.589 | 0.616 | 1.08 | 1.08 | 1.03 | 1.01 | 1.03 | 1.03 | 0.988 | 1.06 | 0.989 | 0.738
NCI-H1563 |  |  |  |  |  | 0.977 | 0.999 | 0.973 | 0.898 | 0.985 |  |  |  |  |  |  |  |  |  | 
NCI-H1623 | 0.507 | 0.474 | 0.475 |  | 0.392 |  |  |  |  |  |  |  |  |  |  |  |  |  |  | 
NCI-H1648 | 0.425 | 0.431 | 0.598 | 0.466 | 0.417 |  |  |  |  |  |  |  |  |  |  |  |  |  |  | 
NCI-H1650 | 0.377 | 0.425 | 0.473 | 0.446 | 0.304 |  |  |  |  |  | 1.37 | 1.26 | 1.12 | 1.09 | 1.34 | 1.17 | 1.18 | 1.53 | 1.19 | 1.22
NCI-H1703 |  |  |  |  |  | 0.213 | 0.298 | 0.251 | 0.274 | 0.206 | 1.71 | 0.991 | 1.05 | 1.13 | 0.765 | 1.16 | 0.95 | 0.848 | 0.576 | 0.283
NCI-H1792 |  |  |  |  |  | 0.668 | 0.663 | 0.668 | 0.518 | 0.168 | 0.939 | 0.665 | 0.55 | 0.675 | 0.825 | 0.637 | 0.597 | 0.641 | 0.541 | 0.459
NCI-H2342 | 0.551 | 0.592 | 0.542 | 0.52 | 0.463 |  |  |  |  |  |  |  |  |  |  |  |  |  |  | 
SW 900 | 0.648 | 0.583 | 0.594 | 0.526 | 0.295 |  |  |  |  |  |  |  |  |  |  |  |  |  |  | 
